Experimental data taken from patent publication US10209240B2, “Predicting human developmental toxicity of pharmaceuticals using human stem-like cells and metabolomic ratios” (STEMINA BIOMARKER DISCOVERY, INC., priority 2012, dated 2019).
Read-outs that look alike come from different tables or passages of the source.

Key:
hES cells [1] = assay: devTOX computational model predictions (Version 2.0, Version 2.1) from hES cell metabolomics; type: cell-based, human; settings: single dose per treatment (Dose column)
Text: The selection process weighted the predictive capacity of a feature, overall intensity, and peak shape to identify very well behaved features/metabolites that could be measured by targeted LC-MS or even by other detection systems.
This simplified model is based on a ratio of the reference treatment (DMSO) normalized values of ADMA and cystine.

WA09 hES cells [2] = assay: Phase 2 targeted biomarker assay, ornithine/cystine ratio, 9-point dose response
Procedure, shortened: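 WA09 hES cells (≤ passage 40), plated as single cells at 100,000/well on Matrigel in mTeSR1 with 10 μM Y27632, dosed 24 h later with nine 3-fold dilutions, 0.04–300 μM, 0.1% DMSO, for 72 h. Final-24 h spent medium, spiked with 13C6-arginine and filtered (<10 kDa), analysed by LC-HRMS; viability by CellTiter-Fluor.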

hES cells [3] = assay: ADMA/cystine ratio simplified predictive model in hES cell spent media; type: cell-based, human; settings: single dose per treatment; ratios less than 0.9 indicate teratogenicity
Procedure, shortened: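 hES cell spent media were analysed for ADMA and cystine, each normalized to the DMSO reference, and their ratio formed. Each value is the median of independent blocks (6 reps each). A ratio cutoff of 0.9 classifies teratogens versus non-teratogens.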

Humans = settings: cited from earlier work; for Humans (known human developmental toxicity): training and test set; for Known Effect: validation and test set treatments of Example 2
[4] = Solubility in DMSO for stock solutions
Description: Phase I hES Cell Compound Exposure. hES cells were treated with a test compound at a single concentration equivalent to the compound's published therapeutic Cmax. […] This was done to ensure that enough cells were present at the time of sample collection to provide a signal for LC-HRMS analysis. For test compound exposure, all compound stock solutions, with the exception of valproic acid, were made with DMSO (Sigma-Aldrich). […] Each 96-well plate included media controls with and without test compound, 0.1% DMSO solvent control cells and cells exposed to a single concentration of eight different test compounds (FIG. 1A). Media controls were included on each plate to assess the impact of test compound on the sample matrix. hES cells were exposed to the test compound for 72 hours, with media and test compound replacement every 24 hours. Cells were monitored throughout the treatment period to ensure that no differentiation was occurring. After 72 hours of treatment, the spent media from the final 24-hour treatment period was collected and added to acetonitrile (Sigma-Aldrich, final acetonitrile concentration 40%), to halt metabolic processes and precipitate proteins from solution. Individual wells from each 96-well plate were collected and analyzed as separate samples. These samples were then stored at −80° C. until prepared for LC-HRMS analysis. Cell viability was assessed using the CellTiter-Fluor Cell Viability Assay as per the manufacturer's instructions (Promega, Madison, Wis.). […]
Phase 2 hES Cell Compound Exposure. […] Cell viability was assessed using the CellTiter-Fluor Cell Viability Assay. A quality control step was included with criteria that the CV of the measured viability RFU of the DMSO control cells could not exceed 10% for a plate to undergo LC-HRMS analysis. […]

WA09 hES cells [5] = settings: for Teratogenicity Potential (μM) Cell Viability: human, 72 h
[6] = therapeutic peak plasma in vivo concentration, human, cited from earlier work
Rodent = settings: training and test set; cited from earlier work
rat = settings: cited from earlier work
[7] = summarized from TERIS and Briggs et al. 2011, cited from earlier work
Rabbit = settings: training and test set; cited from earlier work
zebrafish = settings: training and test set; weak/moderate and strong teratogens both labeled teratogen; cited from earlier work
[8] = test system: mouse embryonic stem cell; settings: training and test set; weak/moderate and strong teratogens both labeled teratogen; cited from earlier work
rat whole embryo = settings: training and test set; weak/moderate and strong teratogens both labeled teratogen; cited from earlier work

Compound: Nc1nc2ncc(CNc3ccc(C(=O)N[C@@H](CCC(=O)O)C(=O)O)cc3)nc2c(=O)[nH]1 [Folic Acid]
- Model Predictions Version 2.0 (hES cells [1]): Ter
- Model Predictions Version 2.1 (hES cells [1]): Non
- Targeted Biomarker Assay prediction (WA09 hES cells [2]): NON
- Model Predictions ADMA/Cystine (hES cells [3]): Non
- Humans (known human developmental toxicity) (Humans): NON
- Solubility in DMSO (words) [4]: completely insoluble in DMSO
- Viability Prediction (WA09 hES cells [5]): NON
- Teratogenicity Potential (μM) Cell Viability (WA09 hES cells [5]): >300 µM
- Cmax ([6]; training set): 0.035 µM

Compound: CS(=O)(=O)CCNCc1ccc(-c2ccc3ncnc(Nc4ccc(OCc5cccc(F)c5)c(Cl)c4)c3c2)o1 [Lapatinib]
- O/C Ratio Prediction (WA09 hES cells [2]): NON
- Targeted Biomarker Assay prediction (WA09 hES cells [2]): NON
- Teratogenicity Potential (μM) O/C Ratio (WA09 hES cells [2]; human, 72 h): 29 µM
- Rodent prediction (Rodent): TER
- Exposure level causing rat pup mortality relative to human clinical exposure based on AUC (rat; given during organogenesis, Briggs et al. 2011): about 3.3 times
- Preclinical in vivo and known human developmental effects ([7]; test set compounds): Skeletal, embryo toxicity^c
- Humans (known human developmental toxicity) (Humans): TER
- Rabbit prediction (Rabbit): TER
- Viability Prediction (WA09 hES cells [5]): NON
- Teratogenicity Potential (μM) Cell Viability (WA09 hES cells [5]): 20.8 µM
- Cmax ([6]; test set): 4.2 µM

Compound: CC[C@H](C)C(=O)O[C@H]1C[C@@H](C)C=C2C=C[C@H](C)[C@H](CC[C@@H]3C[C@@H](O)CC(=O)O3)[C@H]21 [Lovastatin]
- ZET prediction (zebrafish): TER^d
- O/C Ratio Prediction (WA09 hES cells [2]): NON
- Targeted Biomarker Assay prediction (WA09 hES cells [2]): NON
- Teratogenicity Potential (μM) O/C Ratio (WA09 hES cells [2]; human, 72 h): 1.3 µM
- Rodent prediction (Rodent): TER
- Cmax (rat; in vivo, 100 mg/kg/day): ~1.5 µM
- lowest observed adverse effect level (LOAEL) (rat; in vivo): 100 mg/kg body weight per day
- Preclinical in vivo and known human developmental effects ([7]; test set compounds): Skeletal, embryo toxicity^c
- Humans (known human developmental toxicity) (Humans): TER
- Rabbit prediction (Rabbit): NON
- mEST prediction [8]: TER^m
- Viability Prediction (WA09 hES cells [5]): NON
- Teratogenicity Potential (μM) Cell Viability (WA09 hES cells [5]): 4.1 µM
- Cmax ([6]; test set): 0.02 µM

Compound: CC1=C(/C=C/C(C)=C/C=C/C(C)=C/CO)C(C)(C)CCC1 [Retinol]
- WEC prediction (rat whole embryo): TER^q
- Model Predictions Version 2.0 (hES cells [1]): Ter
- Model Predictions Version 2.1 (hES cells [1]): Non
- ZET prediction (zebrafish): TER^c,n
- Change in the o/c ratio, also relative to cytotoxicity (WA09 hES cells [2]): o/c ratio is directly correlated with cell death
- Classification by o/c ratio in the targeted biomarker assay (WA09 hES cells [2]): correctly classify
- O/C Ratio Prediction (WA09 hES cells [2]): NON
- Targeted Biomarker Assay prediction (WA09 hES cells [2]): NON
- Exposure level of o/c ratio change/cell death relative to levels normally encountered by humans (WA09 hES cells [2]; human, 72 h): ~20 times
- Teratogenicity Potential (μM) O/C Ratio (WA09 hES cells [2]; human, 72 h): 42.2 µM
- Rodent prediction (Rodent): TER
- Model Predictions ADMA/Cystine (hES cells [3]): Non
- Preclinical in vivo and known human developmental effects ([7]; training set compounds): Low Doses: None; High
- Dose shown to cause malformations (Humans; experimental animals and humans, Teratology Society 1987): > 25,000 IU/day
- Dose without adverse effect on the developing fetus (FDA maximum RDA) (Humans; human pregnancy): ≤ 8,000 IU
- Humans (known human developmental toxicity) (Humans): NON
- Known Effect (Humans): Non
- Rabbit prediction (Rabbit): TER
- mEST prediction [8]: NON^p
- Viability Prediction (WA09 hES cells [5]): NON
- Teratogenicity Potential (μM) Cell Viability (WA09 hES cells [5]): 42.8 µM
- Cmax ([6]; training set): 2.4 µM

Compound: O=C1NS(=O)(=O)c2ccccc21 [Saccharin]
- WEC prediction (rat whole embryo): NON^j
- Model Predictions Version 2.0 (hES cells [1]): Non
- Model Predictions Version 2.1 (hES cells [1]): Non
- ZET prediction (zebrafish): NON^c,e
- Change in the o/c ratio, also relative to cytotoxicity (WA09 hES cells [2]): no change in the o/c ratio or viability
- O/C Ratio Prediction (WA09 hES cells [2]): NON
- Targeted Biomarker Assay prediction (WA09 hES cells [2]): NON
- Teratogenicity Potential (μM) O/C Ratio (WA09 hES cells [2]; human, 72 h): >300 µM
- Rodent prediction (Rodent): NON
- Model Predictions ADMA/Cystine (hES cells [3]): Non
- Preclinical in vivo and known human developmental effects ([7]; training set compounds): None
- Humans (known human developmental toxicity) (Humans): NON
- Known Effect (Humans): Non
- Rabbit prediction (Rabbit): NON
- mEST prediction [8]: NON^b,i
- Viability Prediction (WA09 hES cells [5]): NON
- Teratogenicity Potential (μM) Cell Viability (WA09 hES cells [5]): >300 µM
- Cmax ([6]; training set): 1.4 µM

Compound: CCCC(CCC)C(=O)O [Valproic Acid]
- WEC prediction (rat whole embryo): TER^f,j
- Model Predictions Version 2.0 (hES cells [1]): Ter
- Model Predictions Version 2.1 (hES cells [1]): Ter
- ZET prediction (zebrafish): TER^e,n
- Change in the o/c ratio, also relative to cytotoxicity (WA09 hES cells [2]): marked change in the o/c ratio at exposure levels well before cytotoxicity is observed
- O/C Ratio Prediction (WA09 hES cells [2]): TER
- Targeted Biomarker Assay prediction (WA09 hES cells [2]): TER
- Teratogenicity Potential (μM) O/C Ratio (WA09 hES cells [2]; human, 72 h): 90.8 µM
- Rodent prediction (Rodent): TER
- Model Predictions ADMA/Cystine (hES cells [3]): Ter
- Preclinical in vivo and known human developmental effects ([7]; training set compounds): Central nervous system,
- Humans (known human developmental toxicity) (Humans): TER
- Known Effect (Humans): Ter
- Rabbit prediction (Rabbit): TER^u
- Solubility in DMSO (words) ([4]; at the stock concentrations used in this study, listed as Valproic acid): insoluble in DMSO
- Solubility in DMSO (words) ([4]; at the stock concentrations used in this study, listed as valproic acid): completely insoluble in DMSO
- mEST prediction [8]: TER^b,i
- Viability Prediction (WA09 hES cells [5]): NON
- Teratogenicity Potential (μM) Cell Viability (WA09 hES cells [5]): 1113.7 µM
- Cmax ([6]; training set): 1000 µM
